Paper PMC7290078, “Agonist bias and agonist‐dependent antagonism at corticotrophin releasing factor receptors” (Pharmacology Research & Perspectives, 2020)
Like-named read-outs stand apart in the source and are kept apart here. Blank lines part the entries; values can stand above or below the molecule they belong to. No end group written: not given here.

Columns and labels:
CRF receptor type 1 = tested on: CRF receptor type 1; parameters: method as in PMID 17057757; conditions: blockade of UCN1; cited from earlier work
CRF1 receptor (hCRF1α) [1] = molecular target: T1, CRF1 receptor (hCRF1α) (Homo sapiens, UniProt P34998); assay: cAMP accumulation (LANCE) in Cos7 cells transfected with hCRF1α, agonist stimulation; format: cell-based; conditions: cAMP, CRF1 receptor, antagonist alone, n = 3
T1 construct: host or cells: Cos7 cells, transient transfection (PEI), pcDNA3.0/3.1 vector
T1 sequence (P34998 24-415): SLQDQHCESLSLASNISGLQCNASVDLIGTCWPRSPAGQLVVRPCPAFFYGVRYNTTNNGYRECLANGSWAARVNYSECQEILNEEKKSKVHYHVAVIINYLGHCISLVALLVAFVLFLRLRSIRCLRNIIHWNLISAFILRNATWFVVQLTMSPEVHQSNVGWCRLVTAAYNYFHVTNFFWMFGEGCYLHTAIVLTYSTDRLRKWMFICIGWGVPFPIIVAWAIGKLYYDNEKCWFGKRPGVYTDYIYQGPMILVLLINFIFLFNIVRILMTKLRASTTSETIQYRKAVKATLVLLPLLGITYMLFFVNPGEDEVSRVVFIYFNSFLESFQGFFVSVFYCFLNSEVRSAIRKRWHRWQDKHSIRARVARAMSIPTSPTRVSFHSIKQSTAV
Excerpt: (§1) Plasmids containing hCRF1α and hCRF2α (GenBank accession numbers AY457172 and AY449734) were obtained from the cDNA Resource Centre (Bloomsburg University) and are referred to as CRF1 and CRF2 in this manuscript. Hemagglutinin (HA) epitope‐tagged human Calcitonin (CT) receptor (CT(a) splice variant) and myc‐tagged human RAMP1 were used as described previously. ^27 HA‐tagged human calcitonin receptor‐like receptor (CLR), N‐terminal FLAG‐tagged human RAMP3 and N‐terminal myc‐tagged human RAMP3 were a gift from Professor David Poyner (Aston University) and Professor Patrick Sexton (Monash University), respectively. N‐terminal FLAG‐tagged human RAMP2 was used as described previously. ^28 All receptors and RAMPs were cloned in pcDNA3.0 or pcDNA3.1 plasmid vectors. All plasmid inserts were sequenced at the Centre for Genomics, Proteomics and Metabolomics (University of Auckland) and the sequences were verified prior to use.
Cos7, HEK‐293S, and HEK‐293T cells were cultured as described previously. ^28 , ^29 Cos7 cells were originally supplied by the ATCC to Associate Professor Nigel Birch (University of Auckland). HEK‐293S cells were a gift from Professor David Poyner (Aston University) and HEK‐293T cells a gift from Professor John Taylor (University of Auckland). Briefly, all cell lines were cultured in Dulbecco's Modified Eagle Medium (DMEM) supplemented with 8% heat inactivated fetal bovine serum (FBS) and maintained in a humidified incubator at 37°C with 5% CO2. For transfection, cells were counted (Countess CounterTM; Life Technologies) and plated at a density of 20 000 cells per well in 96‐well plates. The cells were transiently transfected 48 hours prior to assaying using polyethylenimine (PEI), as described previously. ^28 , ^29 In all experiments a total of 0.25 μg DNA was transfected per well. In the majority of experiments 0.25 μg DNA of receptor‐containing plasmid or the pcDNA3.1 plasmid without an insert was used. For experiments involving RAMPs, 0.125 μg of receptor DNA and 0.125 μg of RAMP‐containing plasmid DNA were transfected to give a 1:1 ratio of receptor to RAMP. […]
cAMP accumulation in Cos7 cells transfected with hCRF1α or hCRF2α receptors was measured using the LANCE cAMP detection assay kit (PerkinElmer Life and Analytical Sciences) as described previously. ^30 Briefly, culture media was removed and replaced with DMEM containing 0.1% bovine albumin serum (BSA) and 1 mmol/L 3‐isobutyl‐1‐methylxanthine (IBMX) for 30 minutes at 37°C. […] Samples were shaken for 15 minutes before 5 µL cell lysate was transferred to a white 384‐well optiplate and processed for cAMP quantification as described previously. ^31 Samples were read using an Envision plate reader (PerkinElmer). cAMP concentrations were determined from a standard curve generated in duplicate. […]

CRF2 receptor (hCRF2α) [2] = molecular target: T2, CRF2 receptor (hCRF2α) (Homo sapiens, UniProt Q13324); assay: cAMP accumulation (LANCE) in Cos7 cells transfected with hCRF2α, agonist stimulation; format: cell-based; conditions: COS-7; cAMP, CRF2 receptor, antagonist alone; n = 3; read-out: E max (partial agonism of antagonist)
T2 construct: host or cells: Cos7 cells, transient transfection (PEI), pcDNA3.0/3.1 vector
T2 sequence (Q13324 1-411): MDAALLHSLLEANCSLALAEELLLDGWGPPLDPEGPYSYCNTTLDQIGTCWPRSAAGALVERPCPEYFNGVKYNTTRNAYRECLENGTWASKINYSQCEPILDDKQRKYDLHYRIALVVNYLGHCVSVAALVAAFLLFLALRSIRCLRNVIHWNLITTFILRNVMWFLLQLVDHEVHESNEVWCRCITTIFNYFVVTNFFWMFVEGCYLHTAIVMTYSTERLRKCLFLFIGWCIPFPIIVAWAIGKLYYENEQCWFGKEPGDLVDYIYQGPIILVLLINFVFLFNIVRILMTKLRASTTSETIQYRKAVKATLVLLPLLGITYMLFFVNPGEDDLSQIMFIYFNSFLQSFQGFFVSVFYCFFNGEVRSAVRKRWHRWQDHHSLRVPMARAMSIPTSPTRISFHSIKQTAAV
Excerpt: as §1
(§2) Cos7, HEK‐293S, and HEK‐293T cells were cultured as described previously. ^28 , ^29 Cos7 cells were originally supplied by the ATCC to Associate Professor Nigel Birch (University of Auckland). HEK‐293S cells were a gift from Professor David Poyner (Aston University) and HEK‐293T cells a gift from Professor John Taylor (University of Auckland). Briefly, all cell lines were cultured in Dulbecco's Modified Eagle Medium (DMEM) supplemented with 8% heat inactivated fetal bovine serum (FBS) and maintained in a humidified incubator at 37°C with 5% CO2. For transfection, cells were counted (Countess CounterTM; Life Technologies) and plated at a density of 20 000 cells per well in 96‐well plates. The cells were transiently transfected 48 hours prior to assaying using polyethylenimine (PEI), as described previously. ^28 , ^29 In all experiments a total of 0.25 μg DNA was transfected per well. In the majority of experiments 0.25 μg DNA of receptor‐containing plasmid or the pcDNA3.1 plasmid without an insert was used. For experiments involving RAMPs, 0.125 μg of receptor DNA and 0.125 μg of RAMP‐containing plasmid DNA were transfected to give a 1:1 ratio of receptor to RAMP. Where the RAMP or receptor were transfected alone, the ratio of DNA was made up with the pcDNA3.1 plasmid.
(§3) cAMP accumulation in Cos7 cells transfected with hCRF1α or hCRF2α receptors was measured using the LANCE cAMP detection assay kit (PerkinElmer Life and Analytical Sciences) as described previously. ^30 Briefly, culture media was removed and replaced with DMEM containing 0.1% bovine albumin serum (BSA) and 1 mmol/L 3‐isobutyl‐1‐methylxanthine (IBMX) for 30 minutes at 37°C. Cells were incubated for an additional 15 minutes at 37°C with media or agonist concentrations of 1 pmol/L to 1 µmol/L for agonist only assays or 10 pmol/L to 10 µmol/L concentrations for antagonist experiments. Antagonists were added simultaneously or immediately prior to the addition of agonists. To stop cell stimulation and extract cAMP, the contents of the wells were replaced with 50 µL absolute ethanol. Samples were left at −20°C for a minimum of 10 minutes. The ethanol was evaporated and replaced with 50 µL of cAMP detection buffer. Samples were shaken for 15 minutes before 5 µL cell lysate was transferred to a white 384‐well optiplate and processed for cAMP quantification as described previously. ^31 Samples were read using an Envision plate reader (PerkinElmer). cAMP concentrations were determined from a standard curve generated in duplicate.
(§4) In all experiments the position of peptides and antagonists (pharmacology) or transfected receptors (ELISAs) on assay plates was randomized during each independent experiment, which are independent biological replicates. In all cases, duplicate, triplicate, or quadruplicate technical replicates were conducted for each independent experiment.

CRF1 receptor (hCRF1α) [3] = molecular target: T1, CRF1 receptor (hCRF1α); assay: Antagonism of agonist-mediated cAMP accumulation in Cos7 cells expressing CRF1 receptors; format: cell-based; conditions: for Kb: hCRF1α, global Schild analysis, mean ± SEM, read-out: antagonist potency (pKB) (converted)
CRF2 receptor (hCRF2α) [4] = molecular target: T2, CRF2 receptor (hCRF2α); assay: Antagonism of agonist-mediated cAMP accumulation in Cos7 cells expressing CRF2 receptors; format: cell-based; conditions: for Kb: hCRF2α, global Schild analysis, mean ± SEM, n = 5, read-out: antagonist potency (pKB) (converted)
Excerpt: as §1, §2, §3, §4

CRF2 receptor = conditions: cited from earlier work

Molecule: CCCCN(CC)c1nc(C)nc2c1c(C)c(C)n2-c1c(C)cc(C)cc1C [antalarmin]
mode of antagonism of Gαi activity (CRF receptor type 1): non‐competitive antagonist of Gαi activity
mode of antagonism of Gαs activity (CRF receptor type 1): competitive antagonist of Gαs

Emax (CRF2 receptor (hCRF2α) [2]): 11%
Kb (CRF1 receptor (hCRF1α) [3]; agonist CRF, cAMP, n = 5): 479 nM
Kb (CRF1 receptor (hCRF1α) [3]; agonist UCN1, cAMP, n = 5 (CP‐376,395), n = 3 (astressin2B)): > 5010 nM
antagonism of UCN1‐mediated cAMP signaling (CRF1 receptor (hCRF1α) [3]; up to 5 μmol/L, CRF1 receptor): did not measurably antagonize
potency against CRF‐mediated relative to UCN1‐mediated cAMP signaling (CRF2 receptor (hCRF2α) [4]; CRF2 receptor): approximately 10 fold
Kb (CRF2 receptor (hCRF2α) [4]; agonist CRF, cAMP): 0.302 nM
Kb (CRF2 receptor (hCRF2α) [4]; agonist UCN1, cAMP): 3.63 nM
potency at CRF2 receptor compared to CRF1 receptor (CRF2 receptor (hCRF2α) [4]; antagonism of either CRF or UCN1‐induced cAMP signaling): at least 1000 fold
Molecule: CCCC[C@H](NC(=O)[C@H](CCCCN)NC(=O)[C@H](CCCNC(=N)N)NC(=O)[C@H](CC(C)C)NC(=O)[C@](C)(CC(C)C)NC(=O)[C@H](Cc1c[nH]cn1)NC(=O)[C@@H](Cc1ccccc1)NC(=O)[C@H](CO)NC(=O)[C@H](CC(C)C)NC(=O)[C@H](CC(=O)O)NC(C)=O)C(=O)N[C@H](C(=O)N[C@@H](CCC(=O)O)C(=O)N[C@H](C(=O)N[C@@H](CCC(=O)O)C(=O)N[C@@H](CCCCN)C(=O)N[C@@H](CCC(N)=O)C(=O)N[C@@H](CCC(=O)O)C(=O)N[C@@H](CCCCN)C(=O)N[C@@H](CCC(=O)O)C(=O)N[C@@H](CCCCN)C(=O)N[C@@H](CCC(N)=O)C(=O)N[C@@H](CCC(N)=O)C(=O)N[C@@H](C)C(=O)N[C@H]1CCC(=O)NCCCC[C@@H](C(=O)N[C@@H](CC(C)C)C(=O)N[C@@H](CC(C)C)C(=O)N[C@@H](CC(C)C)C(=O)N[C@@H](CC(=O)O)C(=O)N[C@@](C)(CC(C)C)C(=O)N[C@H](C(N)=O)[C@@H](C)CC)NC(=O)[C@H](CC(N)=O)NC(=O)[C@H](CC(N)=O)NC1=O)[C@@H](C)CC)[C@@H](C)CC [astressin2B]
partial agonism (CRF1 receptor (hCRF1α) [1]): this was not the case at the CRF1 receptor
selectivity (CRF2 receptor): selective antagonist of the CRF2 receptor

Kb (CRF1 receptor (hCRF1α) [3]; agonist CRF, cAMP, n = 5): 170 nM
Kb (CRF2 receptor (hCRF2α) [4]; agonist CRF, cAMP): 18.6 nM
Molecule: DLTFHLLREMLEMAKAEQEAEQAALNRLLLEEA-NH2 [α‐helical CRF(9‐41)] [listing 1 of 2 here]

Emax (CRF1 receptor (hCRF1α) [1]; COS-7, read-out: E max (partial agonism of antagonist)): 14.8%
Molecule: DLTFHLLREMLEMAKAEQEAEQAALNRLLLEEA-NH2 [α‐helical CRF(9‐41)] [listing 2 of 2 here]
